ChEMBL document CHEMBL3044978, “Efficacy of acibenzolar-S-methyl and two strobilurins, azoxystrobin and trifloxystrobin, for the control of corky root of tomato and verticillium wilt of eggplant” (Crop Prot, 2006)
Active and inactive are the calls of the source. The rule behind the calls is not given here.

Columns and labels:
[1] = test system: Pseudopyrenochaeta lycopersici; assay: Fungicidal activity against Pyrenochaeta lycopersici infected tomato plant assessed as diseased root surface at 87.5 to 100 mg/l after 120 days under greenhouse condition relative to untreated control; assay type: functional
Solanum lycopersicum [2] = assay: Phytotoxicity in Solanum lycopersicum (tomato) plant assessed as leaf chlorosis at 100 to 250 mg/l after 120 days under field condition; assay type: organism-based; settings: in vivo, 2880 h
Solanum lycopersicum [3] = assay: Phytotoxicity in Solanum lycopersicum (tomato) plant assessed as plant stunting at 87.5 to 100 mg/l after 120 days under greenhouse condition; assay type: organism-based; settings: in vivo, 2880 h
Verticillium dahliae [4] = assay: Fungicidal activity against Verticillium dahliae infected eggplant assessed as vascular discoloration at 100 to 250 mg/l after 120 days under field condition relative to untreated control; assay type: functional, organism-based
Solanum melongena [5] = assay: Phytotoxicity in Solanum melongena (eggplant) assessed as leaf chlorosis at 100 to 250 mg/l after 80 to 120 days under field condition; assay type: organism-based; settings: in vivo
Verticillium dahliae [6] = assay: Fungicidal activity against Verticillium dahliae infected eggplant assessed as wilted leaves at 87.5 to 100 mg/l after 80 days under greenhouse condition relative to untreated control; assay type: functional
Verticillium dahliae [7] = assay: Fungicidal activity against Verticillium dahliae infected eggplant assessed as reduction in severity of external symptoms at 100 to 250 mg/l after 80 to 120 days under field condition relative to untreated control; assay type: functional; design: scale not given: the % may be the effect or the level left
[8] = test system: Pseudopyrenochaeta lycopersici; assay: Fungicidal activity against Pyrenochaeta lycopersici infected tomato plant assessed as diseased root surface at 100 to 250 mg/l after 100 days under field condition relative to untreated control; assay type: functional
Solanum melongena [9] = assay: Phytotoxicity in Solanum melongena (eggplant) assessed as plant stunting at 87.5 to 100 mg/l after 80 days under greenhouse condition; assay type: organism-based; settings: in vivo, 1920 h
Solanum lycopersicum [10] = assay: Induction of systemic acquired resistance activity in Solanum lycopersicum (tomato) plant infected with Pyrenochaeta lycopersici assessed as diseased root surface at 12.5 mg/l after 100 days under field condition relative to untreated control; assay type: functional
Solanum melongena [11] = assay: Induction of systemic acquired resistance activity in Solanum melongena (eggplant) infected with Verticillium dahliae assessed as vascular discoloration at 12.5 mg/l after 120 days under field condition relative to untreated control; assay type: functional, organism-based
Solanum melongena [12] = assay: Phytotoxicity in Solanum melongena (eggplant) assessed as leaf chlorosis at 12.5 mg/l after 80 to 120 days under field condition; assay type: organism-based; settings: in vivo
Solanum melongena [13] = assay: Induction of systemic acquired resistance activity in Solanum melongena (eggplant) infected with Verticillium dahliae assessed as reduction in severity of external symptoms at 12.5 mg/l after 80 to 120 days under field condition relative to untreated control; assay type: functional; design: scale not given: the % may be the effect or the level left
Solanum melongena [14] = assay: Phytotoxicity in Solanum melongena (eggplant) assessed as leaf chlorosis at 12.5 to 87.5 mg/l after 80 days under greenhouse condition; assay type: organism-based; settings: in vivo, 1920 h
Solanum melongena [15] = assay: Phytotoxicity in Solanum melongena (eggplant) assessed as plant stunting at 12.5 to 87.5 mg/l after 80 days under greenhouse condition; assay type: organism-based; settings: in vivo, 1920 h
Solanum lycopersicum [16] = assay: Phytotoxicity in Solanum lycopersicum (tomato) plant assessed as plant stunting at 12.5 to 87.5 mg/l after 120 days under greenhouse condition; assay type: organism-based; settings: in vivo, 2880 h
Solanum lycopersicum [17] = assay: Phytotoxicity in Solanum lycopersicum (tomato) plant assessed as leaf chlorosis at 12.5 mg/l after 120 days under field condition; assay type: organism-based; settings: in vivo, 2880 h
Solanum lycopersicum [18] = assay: Phytotoxicity in Solanum lycopersicum (tomato) plant assessed as leaf chlorosis at 12.5 to 87.5 mg/l after 120 days under greenhouse condition; assay type: organism-based; settings: in vivo, 2880 h
Verticillium dahliae [19] = assay: Fungicidal activity against Verticillium dahliae infected eggplant assessed as reduction in severity of external symptoms applied as one soil drench and two foliar sprays post transplanting after 80 to 120 days under field condition relative to untreated control; assay type: functional; design: scale not given: the % may be the effect or the level left
[20] = test system: Pseudopyrenochaeta lycopersici; assay: Fungicidal activity against Pyrenochaeta lycopersici infected tomato plant assessed as diseased root surface after 120 days under greenhouse condition relative to untreated control; assay type: functional
Verticillium dahliae [21] = assay: (§1) Fungicidal activity against Verticillium dahliae infected eggplant assessed as reduction in severity of external symptoms applied as dipping of seedling roots into fungicide water suspension before transplanting and one soil drench post transplanting after 80 to 120 days under field condition relative to untreated control; assay type: functional; design: scale not given: the % may be the effect or the level left
[22] = test system: Pseudopyrenochaeta lycopersici; assay: (§2) Fungicidal activity against Pyrenochaeta lycopersici infected tomato plant assessed as diseased root surface applied as dipping of seedling roots into fungicide water suspension before transplanting and one soil drench post transplanting after 100 days under field condition relative to untreated control; assay type: functional
Verticillium dahliae [23] = assay: Fungicidal activity against Verticillium dahliae infected eggplant assessed as vascular discoloration applied as dipping of seedling roots into fungicide water suspension before transplanting and two soil drenches post transplanting after 120 days under field condition relative to untreated control; assay type: functional, organism-based
Verticillium dahliae [24] = assay: Fungicidal activity against Verticillium dahliae infected eggplant assessed as vascular discoloration applied as one soil drench and two foliar sprays post transplanting after 120 days under field condition relative to untreated control; assay type: functional, organism-based
[25] = test system: Pseudopyrenochaeta lycopersici; assay: as §2, with “two” for “one”, “drenches” for “drench”; assay type: functional
Solanum melongena [26] = assay: Phytotoxicity in Solanum melongena (eggplant) assessed as plant stunting during early growth stage after 80 to 120 days under field condition; assay type: organism-based; settings: in vivo
Solanum melongena [27] = assay: Phytotoxicity in Solanum melongena (eggplant) assessed as plant stunting after 80 days under greenhouse condition; assay type: organism-based; settings: in vivo, 1920 h
Verticillium dahliae [28] = assay: as §1, with “two” for “one”, “drenches” for “drench”; assay type: functional; design: scale not given: the % may be the effect or the level left
[29] = test system: Pseudopyrenochaeta lycopersici; assay: Fungicidal activity against Pyrenochaeta lycopersici infected tomato plant assessed as diseased root surface applied as one soil drench and two foliar sprays post transplanting after 100 days under field condition relative to untreated control; assay type: functional
Verticillium dahliae [30] = assay: Fungicidal activity against Verticillium dahliae infected eggplant assessed as wilted leaves after 80 days under greenhouse condition relative to untreated control; assay type: functional
Solanum lycopersicum [31] = assay: Phytotoxicity in Solanum lycopersicum (tomato) plant assessed as plant stunting after 120 days under greenhouse condition; assay type: organism-based; settings: in vivo, 2880 h
Solanum lycopersicum [32] = assay: Phytotoxicity in Solanum lycopersicum (tomato) plant assessed as plant stunting during early growth stage after 120 days under field condition; assay type: organism-based; settings: in vivo, 2880 h
Verticillium dahliae [33] = assay: Fungicidal activity against Verticillium dahliae infected eggplant assessed as vascular discoloration applied as dipping of seedling roots into fungicide water suspension before transplanting and one soil drench post transplanting after 120 days under field condition relative to untreated control; assay type: functional, organism-based

Which Activity [1] does the source give for CO/N=C(\C(=O)OC)c1ccccc1CO/N=C(\C)c1cccc(C(F)(F)F)c1 here?
Its Activity is 93.3%.

What about the Activity (Solanum lycopersicum [2]) of the same compound?
The Activity was “Non-toxic”.

What about the Activity (Solanum lycopersicum [3]) of the same compound?
Its Activity is “Non-toxic”.

And the Activity (Verticillium dahliae [4])?
The Activity was “inactive”.

What about the Activity (Solanum melongena [5]) of the same compound?
Its Activity is “Non-toxic”.

And the Activity (Verticillium dahliae [6])?
Its Activity is 78.1%.

And the Activity (Verticillium dahliae [7])?
The Activity was 17.6%.

And the Activity [8]?
Its Activity is 48.7%.

What about the Activity (Solanum melongena [9]) of the same compound?
Its Activity is “Non-toxic”.

CSC(=O)c1cccc2nnsc12 [ACIBENZOLAR-S-METHYL] was tested. Which Activity (Solanum lycopersicum [10]) did it give?
Its Activity is 62.7%.

And the Activity (Solanum melongena [11])?
The Activity was “inactive”.

And the Activity (Solanum melongena [12])?
Its Activity is “Non-toxic”.

And the Activity (Solanum melongena [13])?
Its Activity is 6.9%.

And the Activity (Solanum melongena [14])?
The Activity was “Toxic”.

What about the Activity (Solanum melongena [15]) of the same compound?
Its Activity is “Toxic”.

What about the Activity (Solanum lycopersicum [16]) of the same compound?
Its Activity is “Toxic”.

And the Activity (Solanum lycopersicum [17])?
Its Activity is “Non-toxic”.

And the Activity (Solanum lycopersicum [18])?
Its Activity is “Toxic”.

Which Activity (Verticillium dahliae [19]) does the source give for CO/C=C(/C(=O)OC)c1ccccc1Oc1cc(Oc2ccccc2C#N)ncn1 [AZOXYSTROBIN] here?
Its Activity is 24.6%.

What about the Activity [20] of the same compound?
Its Activity is 98.3%.

And the Activity (Verticillium dahliae [21])?
Its Activity is 29.4%.

What about the Activity [22] of the same compound?
Its Activity is 73.5%.

What about the Activity (Verticillium dahliae [23]) of the same compound?
Its Activity is “inactive”.

And the Activity (Verticillium dahliae [24])?
Its Activity is “inactive”.

And the Activity [25]?
Its Activity is 83.7%.

And the Activity (Solanum melongena [26])?
Its Activity is “Toxic”.

And the Activity (Solanum melongena [27])?
Its Activity is “Toxic”.

What about the Activity (Verticillium dahliae [28]) of the same compound?
Its Activity is 24.6%.

What about the Activity [29] of the same compound?
Its Activity is 81.7%.

What about the Activity (Verticillium dahliae [30]) of the same compound?
Its Activity is 95.1%.

And the Activity (Solanum lycopersicum [31])?
The Activity was “Toxic”.

What about the Activity (Solanum lycopersicum [32]) of the same compound?
Its Activity is “Toxic”.

And the Activity (Verticillium dahliae [33])?
Its Activity is “inactive”.
